pEC50: −log10 of the molar value.
Columns and labels:
[1] = molecular target: T1, FXR (Homo sapiens, UniProt Q96RI1); assay: In Vitro FXR Assay (TK), luciferase reporter in transfected CV-1 cells; type: cell-based; design: expressed in transfected cells; host or cells: CV-1 cells; conditions: CV-1 cells transfected with hFXR, hRXR, TK-ECRE-luc; 18 hrs incubation; luminescence; maximum efficacy <25% of Fexaramine control also classified '+'
T1 sequence (Q96RI1 1-486): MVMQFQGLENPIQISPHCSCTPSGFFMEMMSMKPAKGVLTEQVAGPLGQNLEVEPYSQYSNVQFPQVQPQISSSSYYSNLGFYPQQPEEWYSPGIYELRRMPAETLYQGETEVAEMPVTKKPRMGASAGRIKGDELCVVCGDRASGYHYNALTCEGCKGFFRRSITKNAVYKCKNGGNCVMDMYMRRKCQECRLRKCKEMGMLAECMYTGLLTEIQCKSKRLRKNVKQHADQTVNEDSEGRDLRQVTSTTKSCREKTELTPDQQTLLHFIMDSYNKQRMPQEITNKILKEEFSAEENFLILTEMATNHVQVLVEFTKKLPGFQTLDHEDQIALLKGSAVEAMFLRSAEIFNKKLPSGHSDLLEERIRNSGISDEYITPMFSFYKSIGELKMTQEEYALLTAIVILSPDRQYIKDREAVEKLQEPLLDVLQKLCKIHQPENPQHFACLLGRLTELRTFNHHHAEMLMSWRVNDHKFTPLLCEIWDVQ
T1 sequence (P19793 1-462 partner): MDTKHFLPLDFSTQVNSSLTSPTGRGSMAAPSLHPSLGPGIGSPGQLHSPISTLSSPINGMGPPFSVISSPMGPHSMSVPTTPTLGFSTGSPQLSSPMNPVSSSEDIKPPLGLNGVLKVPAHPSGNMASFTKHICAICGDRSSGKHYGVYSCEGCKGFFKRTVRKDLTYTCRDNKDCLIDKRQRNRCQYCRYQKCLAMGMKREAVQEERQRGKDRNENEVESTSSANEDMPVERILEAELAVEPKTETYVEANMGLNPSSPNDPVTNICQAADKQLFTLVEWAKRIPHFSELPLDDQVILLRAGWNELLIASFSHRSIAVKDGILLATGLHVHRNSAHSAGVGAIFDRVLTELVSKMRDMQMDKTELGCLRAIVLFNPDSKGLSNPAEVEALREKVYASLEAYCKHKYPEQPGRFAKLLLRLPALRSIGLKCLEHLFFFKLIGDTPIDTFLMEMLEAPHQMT
Protocol: Example B-2: In Vitro FXR Assay (TK)
CV-1 cells were seeded at a density of 2,000,000 cells in a T175 flask with DMEM+10% charcoal double-stripped FBS and incubated at 37° C. in 5% CO2 for 18 h (0/N).
After 18 h of incubation, the medium in the T175 flask was changed with fresh DMEM+10% charcoal super-stripped serum. In a polypropylene tube, 2500 μL OptiMEM (Life Technologies, Cat #31985-062) was combined with expression plasmids for hFXR, hRXR, TK-ECRE-luc and pCMX-YFP. The tube was then briefly vortexed and incubated at room temperature for 5 minutes. Transfection reagent (X-tremeGENE HP from Roche, Cat #06 366 236 001) was added to the OptiMEM/plasmid mixture vortexed and incubated at room temperature for 20 minutes. Following incubation, the transfection reagent/DNA mixture complex was added to cells in the T175 flask and the cells were incubated at 37° C. in 5% CO2 for 18 h (O/N).
Compounds were serially diluted in DMSO and added to transfected CV-1 cells. The cells were then incubated for 18 hrs. The next day cells were lysed and examined for luminescence.

[2] = molecular target: T1, FXR; assay: In Vitro FXR Assay (PGL3), luciferase reporter in transfected CV-1 cells; type: cell-based; design: plasmids XPD90Gal pCMXhFXRfl, pCMXhRXRfl+PGL3-ECRE*6-luc+CMX-YFP; expressed in transfected cells; host or cells: CV-1 cells; conditions: CV-1 cells transfected with hFXR, hRXR, PGL3-ECRE*6-luc; 18 hrs incubation; luminescence
Protocol: Example B-1: In Vitro FXR Assay (PGL3)
CV-1 cells were seeded at a density of 2,000,000 cells in a T175 flask with DMEM+10% charcoal double-stripped FBS and incubated at 37° C. in a 5% CO2 for 18 h (0/N).
After 18 h of incubation, the medium in the T175 flask was changed with fresh DMEM+10% charcoal super-stripped serum.
To prepare the transfection reaction mixture, the transfection reagent (X-tremeGENE HP from Roche, Cat #06 366 236 001) was added in to a 1.5 mL microcentrifuge tube labelled “A” at a ratio of 1:3 (DNA in μg: transfection reagent in μL). OptiMEM medium (Life Technologies, Cat #31985-062) was added accordingly to provide a total volume of 1 mL. The transfection reaction mixture was then briefly vortexed and incubated at room temperature for 5 minutes.
In a separate 1.5 mL microcentrifuge tube labelled “B”, 100 μL OptiMEM and plasmids XPD90Gal pCMXhFXRfl, pCMXhRXRfl+PGL3-ECRE*6-luc+CMX-YFP in the ratio 2 μg: 2 μg:18 μg:3 μg were added. This microcentrifuge tube “B” was then briefly vortexed and incubated at room temperature for 5 minutes.
The total volume in tube labelled “A” was then transferred in to tube labelled “B.” The mixture was then briefly vortexed and the transfection:DNA complex was then incubated for about 15-20 minutes at room temperature.
Following incubation, the transfection reagent/DNA mixture complex was then added to cells in the T175 flask and the cells were incubated at […] (0/N) at 37° C. in 5% CO2.
In a 96 well plate, a half logarithmic serial dilution was prepared. OptiMEM was used as the diluent. Using any of one of the compounds described herein, a compound stock solution of 10 mM was prepared. An initial 1:100 dilution was made into the first well for a final concentration of 100 μM. The final concentrations in the 96-well plate was prepared by using a multichannel pipette to transfer 5 μL of the diluted compound to 384-well plate in quadruplicate.
Cells in T175 flask were trypsinized and cells were resuspending in 40 mL phenol red free DMEM+10% charcoal super-stripped FBS. Typically, one T175 flask was sufficient to seed two 384 well plates. CV-1 cells were seeded at 45 μL cell suspension/well using a multi-channel pipet or a 384 multidrop dispenser. The cells were then incubated for 18 hrs, overnight.
After removing the plates from the incubator, the medium was flicked out of plate and 384 well plate was turned upside down onto paper towel. The remaining medium was gently tapped out. 15 μL lysis buffer was then added to each well using a multichannel pipet or a 384 well multi-drop dispenser. After incubation for 10 minutes at room temperature on shaker, 30 μL Luciferase buffer was added to each well. Luminescence counts were taken immediately using the Perkin Elmer Envision.
The ability of the compounds disclosed herein to […] FXR activity was quantified and the respective EC50 value was determined. Fex=fexaramine.

In the case of `COC(=O)/C=C/c1cccc(N(Cc2ccc(-c3ccc(N(C)C)cc3)nc2)C(=O)C2CCCCC2)c1` [Compound 1, (E)-Methyl 3-(3-(N-((6-(4-(dimethylamino)phenyl)pyridin-3-yl)methyl)cyclohexanecarboxamido)phenyl)acrylate], the pEC50 [1] was 5.00 to 6.00 and the “Cmpd/Fex (ratio of the EC50 for the test compound relative to the EC50 of the Fexaramine control)” value [2] was “+++ (‘+++’ means Cmpd/Fex <10)”.
